Experimental data published in patent US9708336B2, “Metallo-beta-lactamase inhibitors” (priority 2014, dated 2017).
Read-outs that look alike come from different tables or passages of the source.

Columns and labels:
NDM-1 = NDM-1 (Klebsiella pneumoniae, UniProt C7C422); assay: biochemical; type: biochemical; settings: read-out: NDM-1 IC50
IMP-1 = IMP-1 (Serratia marcescens, UniProt P52699); assay: biochemical; type: biochemical; settings: read-out: IMP-1 IC50
VIM-1 = VIM-1 (Pseudomonas aeruginosa (strain ATCC 15692 / DSM 22644 / CIP 104116 / JCM 14847 / LMG 12228 / 1C / PRS 101 / PAO1), UniProt A0A0F7KYQ8); assay: Enzyme activity: determination of IC50, fluorescence assay with CCF2-FA substrate (VIM-1); type: biochemical
[1] = system: Escherichia coli expressing NDM-1 (CLB30016); assay: Antibiotic potentiation activity: synergistic concentration (MITC95) with imipenem, OD600 growth; type: cell-based; settings: for Escherichia coli expressing NDM-1 (CLB 30016) MITC95: concentration giving 95% inhibition of bacterial growth
Method in brief: (§1)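 Growth after 22–24 h at 35 °C is measured spectrophotometrically for bacteria incubated with compound plus imipenem (4 μg/ml in-well, or 1 μg/ml). Cells come from overnight agar colonies resuspended in saline and diluted 1:100 in 1.1× CAMHB.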

[2] = system: Klebsiella pneumoniae expressing VIM-1 (IHMA599644); assay: as above; type: cell-based; settings: for Klebsiella pneumoniae expressing VIM-1 (IHMA 599644) MITC95: concentration giving 95% inhibition of bacterial growth
Method in brief: as §1

[3] = system: Serratia marcescens expressing IMP-1 (CL5741); assay: as above; type: cell-based; settings: for Serratia marcescens expressing IMP-1 (CL5741) MITC95: concentration giving 95% inhibition of bacterial growth
Method in brief: as §1

[4] = fluorescence assay with CCF2-FA substrate
[5] = fluorescence assay with CCF2-FA substrate, read-out: VIM-1 IC50
[6] = NDM-1 enzyme, CCF2-FA substrate
[7] = IMP-1 enzyme, CCF2-FA substrate
[8] = VIM-1 enzyme, CCF2-FA substrate, read-out: VIM-1 IC50
[9] = (CLB30016, NDM-1), 95% growth inhibition
[10] = Klebsiella pneumoniae IHMA599644 (VIM-1), 95% growth inhibition
[11] = Serratia marcescens CL5741 (IMP-1), 95% growth inhibition
[12] = NDM-1 enzyme, CCF2-FA fluorescence assay
[13] = IMP-1 enzyme, CCF2-FA fluorescence assay
[14] = Escherichia coli expressing NDM-1 (CLB30016), 95% growth inhibition
[15] = Klebsiella pneumoniae expressing VIM-1 (IHMA599644), 95% growth inhibition
[16] = Serratia marcescens expressing IMP-1 (CL5741), 95% growth inhibition
[17] = VIM-1 IC50, VIM-1 enzyme, CCF2-FA fluorescence assay

Chain of IMP-1 (P52699 whole entry, looked up): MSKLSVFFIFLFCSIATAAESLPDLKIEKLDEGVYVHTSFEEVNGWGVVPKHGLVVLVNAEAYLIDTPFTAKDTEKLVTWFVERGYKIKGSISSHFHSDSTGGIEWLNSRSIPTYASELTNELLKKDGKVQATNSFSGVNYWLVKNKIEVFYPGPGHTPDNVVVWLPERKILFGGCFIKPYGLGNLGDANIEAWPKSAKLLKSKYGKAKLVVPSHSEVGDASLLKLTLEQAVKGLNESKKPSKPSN
Chain of NDM-1 (C7C422 whole entry, looked up, species assumed): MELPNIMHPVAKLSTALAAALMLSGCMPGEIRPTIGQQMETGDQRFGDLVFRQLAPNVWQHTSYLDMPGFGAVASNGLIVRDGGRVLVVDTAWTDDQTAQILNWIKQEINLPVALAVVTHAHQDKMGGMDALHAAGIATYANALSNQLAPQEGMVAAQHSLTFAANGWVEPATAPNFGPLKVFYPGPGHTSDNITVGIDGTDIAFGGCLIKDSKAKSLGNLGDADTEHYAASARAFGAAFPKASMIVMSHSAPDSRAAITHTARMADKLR

Row | Compound | IC50 (NDM-1; [4]) [nM] | IC50 (IMP-1; [4]) [nM] | IC50 (NDM-1; [6]) [nM] | IC50 (IMP-1; [7]) [nM] | IC50 (VIM-1; [8]) [nM] | Escherichia coli MITC95 [1, 9] [µM] | Klebsiella pneumoniae MITC95 [2, 10] [µM] | Serratia marcescens MITC95 [3, 11] [µM] | IC50 (NDM-1; [12]) [nM] | IC50 (IMP-1; [13]) [nM] | Escherichia coli MITC95 [1, 14] [µM] | Klebsiella pneumoniae MITC95 [2, 15] [µM] | Serratia marcescens MITC95 [3, 16] [µM] | further results
1 | NS(=O)(=O)c1c(C(F)(F)F)ccc(N2CC[C@H]3NCCO[C@@H]3C2)c1-c1nnn[nH]1 [Example 773, 3-[(4aR,8aR)-octahydro-6H-pyrido[3,4-b][1,4]oxazin-6-yl]-2-(1H-tetrazol-5-yl)-6-(trifluoromethyl) benzenesulfonamide] | 31.8 | 17.2 | – | – | – | – | – | – | – | – | – | – | – | IC50 (VIM-1; [5]): 1.11 nM; Escherichia coli MITC95 ([1]; CLB30016 (NDM-1), 95% inhibition of bacterial growth): 6.25 µM; Klebsiella pneumoniae MITC95 ([2]; IHMA599644 (VIM-1), 95% inhibition of bacterial growth): 3.125 µM; Serratia marcescens MITC95 ([3]; CL5741 (IMP-1), 95% inhibition of bacterial growth): 6.25 µM
2 | Nc1nc2c(-c3ccc(C(F)(F)F)c(S(N)(=O)=O)c3-c3nnn[nH]3)cccc2s1 [Example 561, 3-(2-aminobenzo[d]thiazol-4-yl)-2-(1H-tetrazol-5-yl)-6-(trifluoromethyl)benzenesulfonamide] | – | – | 0.153 | 0.993 | 0.434 | 0.668 | 2.563 | 0.09375 | – | – | – | – | – | –
3 | CNCCN1CCC(c2ccc(-c3ccc(C(F)(F)F)c(S(N)(=O)=O)c3-c3nnn[nH]3)cc2)CC1 [Example 674, 4′-{1-[2-(methylamino)ethyl]piperi-din-4-yl}-2-(1H-tetrazol-5-yl)-4-(trifluoromethyl)biphenyl-3-sulfonamide] | – | – | 6.63 | 2.47 | 17.4 | 3.125 | 75 | 6.25 | – | – | – | – | – | –
4 | Cc1cc(N)ncc1Cc1cccc(S(N)(=O)=O)c1-c1nn[nH]n1 [Example 573, 3-((6-amino-4-methylpyridin-3-yl)methyl)-2-(2H-tetrazol-5-yl)benzenesulfonamide] | – | – | 38.6 | 668 | 41.4 | 0.7813 | 12.5 | 12.5 | – | – | – | – | – | –
5 | Cc1ccc(-c2ccc(Br)c(S(N)(=O)=O)c2-c2nn[nH]n2)cc1 [Example 267, 4-bromo-4′-methyl-2-(2H-tetrazol-5-yl)-[1,1′-biphenyl]-3-sulfonamide] | – | – | – | – | – | – | – | – | 1.81 | 2 | 0.7383 | 6.25 | 0.2552 | IC50 (VIM-1; VIM-1 enzyme, CCF2-FA fluorescence assay, read-out: VIM-1 IC50): 2.95 nM
6 | NS(=O)(=O)c1cccc(-c2cccc3c2CNC3=O)c1-c1nnn[nH]1 [Example 120, 3-(1-oxoisoindolin-4-yl)-2-(1H-tetrazol-5-yl)benzenesulfonamide] | 1.42 | 777 | – | – | – | – | – | – | – | – | – | – | – | IC50 (VIM-1; VIM-1 IC50, fluorescence assay with CCF2-FA substrate): 4.99 nM; Escherichia coli expressing NDM-1 (CLB 30016) MITC95 [1]: 0.7813 µM; Klebsiella pneumoniae expressing VIM-1 (IHMA 599644) MITC95 [2]: 4.688 µM; Serratia marcescens expressing IMP-1 (CL5741) MITC95 [3]: 18.75 µM
7 | NS(=O)(=O)c1cccc(-c2ccc(CNCCc3nc[nH]n3)cc2)c1-c1nnn[nH]1 [Example 338, 4′-(((2-(1H-1,2,4-triazol-3-yl)ethyl)amino)methyl)-2-(1H-tetrazol-5-yl)-[1,1′-biphenyl]-3-sulfonamide] | – | – | – | – | – | – | – | – | 4.53 | 75.4 | 0.5859 | 25 | 3.125 | IC50 (VIM-1; [17]): 152 nM
8 | N=C(N)NC1CCC(CCc2ccc(-c3ccc(C4CCN(C(=N)N)CC4)cc3)c(-c3nn[nH]n3)c2S(N)(=O)=O)CC1 (stereo not drawn) [Example 472, 4-(4′-(2-(4-guanidinocyclohexyl)ethyl)-3′-sulfamoyl-2′-(2H-tetrazol-5-yl)-[1,1′-biphenyl]-4-yl)piperidine-1-carboximidamide] | – | – | – | – | – | – | – | – | 0.505 | 0.661 | 1.172 | 75 | 0.7813 | IC50 (VIM-1; [17]): 13.4 nM
9 | N#Cc1cncc(-c2cccc(S(N)(=O)=O)c2-c2nnn[nH]2)c1 [Example 136, 3-(5-cyanopyridin-3-yl)-2-(1H-tetrazol-5-yl)benzenesulfonamide] | 24.8 | 1690 | – | – | – | – | – | – | – | – | – | – | – | IC50 (VIM-1; [5]): 150 nM; Escherichia coli expressing NDM-1 (CLB 30016) MITC95 [1]: 1.563 µM; Klebsiella pneumoniae expressing VIM-1 (IHMA 599644) MITC95 [2]: 37.5 µM; Serratia marcescens expressing IMP-1 (CL5741) MITC95 [3]: 25 µM
